According to patent US9005575B2, “Arg-Gly-Asp-conjugated alpha-melanocyte stimulating hormone hybrid peptide for use in diagnosing and treating melanoma, including metastatic melanoma and methods related to same” (STC.UNM, priority 2009, dated 2015):
Read-outs that look alike come from different tables or passages of the source. Positions of bridges follow the written chain, without caps; N, C: chain ends. Non-standard residues stand in square brackets, D forms with d. Residues, ends and D or L forms follow the SMILES beside them.

Assay: Biodistribution in B16/F1 melanoma-bearing C57 mice
Assay type: in vivo
Conditions: female, C57, mouse, iv, total radioactivity; for tissue uptake at 0.5 h / tissue to tissue ratio at 0.5 h: 0.5 h post-injection; for tissue uptake at 2 h / tissue to tissue ratio at 2 h: 2 h post-injection; for tissue uptake at 4 h / tissue to tissue ratio at 4 h: 4 h post-injection; for tissue uptake at 24 h / tissue to tissue ratio at 24 h: 24 h post-injection
Procedure: All the animal studies were conducted in compliance with Institutional Animal Care and Use Committee approval. The pharmacokinetics of ^99mTc-RGD-Lys-(Arg^11)CCMSH was determined in B16/F1 melanoma-bearing C57 female mice (Harlan, Indianapolis, Ind.). C57 mice were subcutaneously inoculated on the right flank with 1×10^6 B16/F1 cells. The weight of tumors reached approximately 0.2 g 10 days post cell inoculation. Each melanoma-bearing mouse was injected with 0.037 MBq of ^99mTc-RGD-Lys-(Arg^11)CCMSH via the tail vein. Groups of 5 mice were sacrificed at 0.5, 2, 4 and 24 h post-injection, and tumors and organs of interest were harvested, weighed and counted. Blood values were taken as 6.5% of the whole-body weight. The MC1 receptor specificity of the tumor uptake was determined at 2 h post-injection by co-injecting ^99mTc-RGD-Lys-(Arg^11)CCMSH with 10 μg (6.1 nmol) of unlabeled NDP-MSH, a linear α-MSH peptide analogue with picomolar affinity for the MC1 receptors present on murine melanoma cells. The co-injection of 3.5 μg (6.1 nmol) of RGD peptide was performed to determine the αvβ3 integrin specificity of the tumor uptake 2 h post-injection. Statistical analysis was performed using the Student's t-test for unpaired data.
All the animal studies were conducted in compliance with Institutional Animal Care and Use Committee approval. The pharmacokinetics of ^99mTc-RGD-Arg-(Arg^11)CCMSH was determined in B16/F1 melanoma-bearing C57 female mice (Harlan, Indianapolis, Ind.). C57 mice were subcutaneously inoculated on the right flank with 1×10^6 B16/F1 cells. The weight of tumors reached approximately 0.2 g 10 days post cell inoculation. Each melanoma-bearing mouse was injected with 0.037 MBq of ^99mTc-RGD-Arg-(Arg^11)CCMSH via the tail vein. Groups of 5 mice were sacrificed at 0.5, 2, 4 and 24 h post-injection, and tumors and organs of interest were harvested, weighed and counted. Blood values were taken as 6.5% of the whole-body weight. The MC1 receptor specificity of the tumor uptake was determined at 2 h post-injection by co-injecting ^99mTc-RGD-Arg-(Arg^11)CCMSH with 10 μg (6.1 nmol) of unlabeled NDP-MSH. The co-injection of 3.5 μg (6.1 nmol) of RGD peptide was performed to determine the αvβ3 integrin specificity of the tumor uptake at 2 h post-injection.

[1] = pancreas, 0.037 MBq, read-out: Pancreas, Percentage Injected Dose/gram
[2] = skin, 0.037 MBq, read-out: Skin, Percentage Injected Dose/gram
[3] = spleen, 0.037 MBq, read-out: Spleen, Percentage Injected Dose/gram
[4] = stomach, 0.037 MBq, read-out: Stomach, Percentage Injected Dose/gram
[5] = tumor, 0.037 MBq, read-out: Tumor, Percentage Injected Dose/gram
[6] = tumor/blood, 0.037 MBq, read-out: Uptake Ratio Tumor/Blood
[7] = tumor/kidneys, 0.037 MBq, read-out: Uptake Ratio Tumor/Kidneys
[8] = tumor/liver, 0.037 MBq, read-out: Uptake Ratio Tumor/Liver
[9] = tumor/lung, 0.037 MBq, read-out: Uptake Ratio Tumor/Lung
[10] = tumor/muscle, 0.037 MBq, read-out: Uptake Ratio Tumor/Muscle

Q: With `CC(C)[C@H](NC(=O)[C@@H]1CCCN1C(=O)[C@H](CCCNC(=N)N)NC(=O)[C@H](CS)NC(=O)[C@H](Cc1c[nH]c2ccccc12)NC(=O)[C@H](CCCNC(=N)N)NC(=O)[C@@H](Cc1ccccc1)NC(=O)[C@H](Cc1c[nH]cn1)NC(=O)[C@H](CCC(=O)O)NC(=O)[C@H](CS)NC(=O)[C@H](CS)NC(=O)[C@H](CCCCN)NC(=O)[C@@H]1CC(=O)N[C@@H](CCCNC(=N)N)C(=O)NCC(=O)N[C@@H](CC(=O)O)C(=O)N[C@H](Cc2ccc(O)cc2)C(=O)N1)C(N)=O` [^99mTc-RGD-Lys-(Arg^11)CCMSH, metal not drawn] (RGD[dY]DKCCEH[dF]RWCRPV-NH2; lactam N-5) as the molecule, how does the tissue uptake (normal organs except kidneys, 0.037 MBq, after 2 h post-injection, read-out: Normal organ uptakes except for the kidneys) read?
A: Its tissue uptake is under 3.2 %ID/g.

Q: And the tissue uptake at 0.5 h [1]?
A: Its tissue uptake at 0.5 h is 1.48 ± 1.24 %ID/g.

Q: What about the tissue uptake at 2 h [1] of the same molecule?
A: Its tissue uptake at 2 h is 0.72 ± 0.53 %ID/g.

Q: And the tissue uptake at 4 h [1]?
A: The tissue uptake at 4 h was 0.52 ± 0.41 %ID/g.

Q: And the tissue uptake at 24 h [1]?
A: The tissue uptake at 24 h was 0.25 ± 0.06 %ID/g.

Q: And the tissue uptake at 2 h (pancreas, NDP blockade (10 μg NDP-MSH co-injected), read-out: Pancreas, Percentage Injected Dose/gram)?
A: Its tissue uptake at 2 h is 0.44 ± 0.37 %ID/g.

Q: What about the tissue uptake at 2 h (pancreas, RGD blockade (3.5 μg RGD co-injected), read-out: Pancreas, Percentage Injected Dose/gram) of the same molecule?
A: Its tissue uptake at 2 h is 0.35 ± 0.19 %ID/g.

Q: And the tissue uptake at 0.5 h [2]?
A: The tissue uptake at 0.5 h was 4.53 ± 0.88 %ID/g.

Q: And the tissue uptake at 2 h [2]?
A: Its tissue uptake at 2 h is 1.52 ± 0.66 %ID/g.

Q: And the tissue uptake at 4 h [2]?
A: The tissue uptake at 4 h was 1.17 ± 0.61 %ID/g.

Q: And the tissue uptake at 24 h [2]?
A: Its tissue uptake at 24 h is 0.78 ± 0.19 %ID/g.

Q: And the tissue uptake at 2 h (skin, NDP blockade (10 μg NDP-MSH co-injected), read-out: Skin, Percentage Injected Dose/gram)?
A: Its tissue uptake at 2 h is 1.14 ± 0.38 %ID/g.

Q: And the tissue uptake at 2 h (skin, RGD blockade (3.5 μg RGD co-injected), read-out: Skin, Percentage Injected Dose/gram)?
A: The tissue uptake at 2 h was 0.81 ± 0.13 %ID/g.

Q: What about the tissue uptake at 0.5 h [3] of the same molecule?
A: Its tissue uptake at 0.5 h is 2.18 ± 0.88 %ID/g.

Q: And the tissue uptake at 2 h [3]?
A: Its tissue uptake at 2 h is 1.23 ± 0.62 %ID/g.

Q: What about the tissue uptake at 4 h [3] of the same molecule?
A: Its tissue uptake at 4 h is 1.14 ± 0.16 %ID/g.

Q: And the tissue uptake at 24 h [3]?
A: Its tissue uptake at 24 h is 0.88 ± 0.3 %ID/g.

Q: And the tissue uptake at 2 h (spleen, NDP blockade (10 μg NDP-MSH co-injected), read-out: Spleen, Percentage Injected Dose/gram)?
A: The tissue uptake at 2 h was 0.75 ± 0.37 %ID/g.

Q: What about the tissue uptake at 2 h (spleen, RGD blockade (3.5 μg RGD co-injected), read-out: Spleen, Percentage Injected Dose/gram) of the same molecule?
A: Its tissue uptake at 2 h is 0.94 ± 0.3 %ID/g.

Q: And the tissue uptake at 0.5 h [4]?
A: The tissue uptake at 0.5 h was 7.61 ± 1.98 %ID/g.

Q: What about the tissue uptake at 2 h [4] of the same molecule?
A: The tissue uptake at 2 h was 2.57 ± 0.38 %ID/g.

Q: And the tissue uptake at 4 h [4]?
A: Its tissue uptake at 4 h is 2.46 ± 1.39 %ID/g.

Q: What about the tissue uptake at 24 h [4] of the same molecule?
A: The tissue uptake at 24 h was 0.91 ± 0.67 %ID/g.

Q: And the tissue uptake at 2 h (stomach, NDP blockade (10 μg NDP-MSH co-injected), read-out: Stomach, Percentage Injected Dose/gram)?
A: Its tissue uptake at 2 h is 2.43 ± 0.8 %ID/g.

Q: What about the tissue uptake at 2 h (stomach, RGD blockade (3.5 μg RGD co-injected), read-out: Stomach, Percentage Injected Dose/gram) of the same molecule?
A: The tissue uptake at 2 h was 2.64 ± 0.1 %ID/g.

Q: What about the tissue uptake at 0.5 h [5] of the same molecule?
A: The tissue uptake at 0.5 h was 11.1 ± 1.41 %ID/g.

Q: And the tissue uptake at 2 h [5]?
A: The tissue uptake at 2 h was 14.8 ± 2.94 %ID/g.

Q: And the tissue uptake at 4 h [5]?
A: Its tissue uptake at 4 h is 12.6 ± 2.53 %ID/g.

Q: And the tissue uptake at 24 h [5]?
A: The tissue uptake at 24 h was 7.59 ± 2.04 %ID/g.

Q: And the tissue uptake at 2 h (tumor, NDP blockade (10 μg NDP-MSH co-injected), read-out: Tumor, Percentage Injected Dose/gram)?
A: The tissue uptake at 2 h was 1.81 ± 0.64 %ID/g.

Q: And the tissue uptake at 2 h (tumor, RGD blockade (3.5 μg RGD co-injected), read-out: Tumor, Percentage Injected Dose/gram)?
A: Its tissue uptake at 2 h is 10.5 ± 1.18 %ID/g.

Q: What about the tissue to tissue ratio at 0.5 h [6] of the same molecule?
A: Its tissue to tissue ratio at 0.5 h is 3.48.

Q: What about the tissue to tissue ratio at 2 h [6] of the same molecule?
A: Its tissue to tissue ratio at 2 h is 15.4.

Q: What about the tissue to tissue ratio at 4 h [6] of the same molecule?
A: Its tissue to tissue ratio at 4 h is 25.1.

Q: And the tissue to tissue ratio at 24 h [6]?
A: Its tissue to tissue ratio at 24 h is 69.

Q: And the tissue to tissue ratio at 2 h (tumor/blood, NDP blockade (10 μg NDP-MSH co-injected), read-out: Uptake Ratio Tumor/Blood)?
A: The tissue to tissue ratio at 2 h was 5.66.

Q: And the tissue to tissue ratio at 2 h (tumor/blood, RGD blockade (3.5 μg RGD co-injected), read-out: Uptake Ratio Tumor/Blood)?
A: The tissue to tissue ratio at 2 h was 19.8.

Q: What about the tissue to tissue ratio at 0.5 h [7] of the same molecule?
A: Its tissue to tissue ratio at 0.5 h is 0.16.

Q: What about the tissue to tissue ratio at 2 h [7] of the same molecule?
A: The tissue to tissue ratio at 2 h was 0.22.

Q: What about the tissue to tissue ratio at 4 h [7] of the same molecule?
A: The tissue to tissue ratio at 4 h was 0.18.

Q: What about the tissue to tissue ratio at 24 h [7] of the same molecule?
A: Its tissue to tissue ratio at 24 h is 0.19.

Q: What about the tissue to tissue ratio at 2 h (tumor/kidneys, NDP blockade (10 μg NDP-MSH co-injected), read-out: Uptake Ratio Tumor/Kidneys) of the same molecule?
A: The tissue to tissue ratio at 2 h was 0.03.

Q: What about the tissue to tissue ratio at 2 h (tumor/kidneys, RGD blockade (3.5 μg RGD co-injected), read-out: Uptake Ratio Tumor/Kidneys) of the same molecule?
A: Its tissue to tissue ratio at 2 h is 0.19.

Q: What about the tissue to tissue ratio at 0.5 h [8] of the same molecule?
A: Its tissue to tissue ratio at 0.5 h is 2.75.

Q: And the tissue to tissue ratio at 2 h [8]?
A: The tissue to tissue ratio at 2 h was 4.68.

Q: What about the tissue to tissue ratio at 4 h [8] of the same molecule?
A: Its tissue to tissue ratio at 4 h is 4.32.

Q: And the tissue to tissue ratio at 24 h [8]?
A: Its tissue to tissue ratio at 24 h is 4.39.

Q: And the tissue to tissue ratio at 2 h (tumor/liver, NDP blockade (10 μg NDP-MSH co-injected), read-out: Uptake Ratio Tumor/Liver)?
A: Its tissue to tissue ratio at 2 h is 0.63.

Q: And the tissue to tissue ratio at 2 h (tumor/liver, RGD blockade (3.5 μg RGD co-injected), read-out: Uptake Ratio Tumor/Liver)?
A: Its tissue to tissue ratio at 2 h is 4.63.

Q: What about the tissue to tissue ratio at 0.5 h [9] of the same molecule?
A: Its tissue to tissue ratio at 0.5 h is 2.08.

Q: And the tissue to tissue ratio at 2 h [9]?
A: The tissue to tissue ratio at 2 h was 11.8.

Q: And the tissue to tissue ratio at 4 h [9]?
A: The tissue to tissue ratio at 4 h was 11.8.

Q: What about the tissue to tissue ratio at 24 h [9] of the same molecule?
A: The tissue to tissue ratio at 24 h was 8.07.

Q: And the tissue to tissue ratio at 2 h (tumor/lung, NDP blockade (10 μg NDP-MSH co-injected), read-out: Uptake Ratio Tumor/Lung)?
A: Its tissue to tissue ratio at 2 h is 1.38.

Q: And the tissue to tissue ratio at 2 h (tumor/lung, RGD blockade (3.5 μg RGD co-injected), read-out: Uptake Ratio Tumor/Lung)?
A: Its tissue to tissue ratio at 2 h is 9.38.

Q: What about the tissue to tissue ratio at 0.5 h [10] of the same molecule?
A: Its tissue to tissue ratio at 0.5 h is 29.1.

Q: And the tissue to tissue ratio at 2 h [10]?
A: Its tissue to tissue ratio at 2 h is 43.6.

Q: What about the tissue to tissue ratio at 4 h [10] of the same molecule?
A: Its tissue to tissue ratio at 4 h is 96.7.

Q: What about the tissue to tissue ratio at 24 h [10] of the same molecule?
A: The tissue to tissue ratio at 24 h was 33.

Q: What about the tissue to tissue ratio at 2 h (tumor/muscle, NDP blockade (10 μg NDP-MSH co-injected), read-out: Uptake Ratio Tumor/Muscle) of the same molecule?
A: Its tissue to tissue ratio at 2 h is 8.62.

Q: And the tissue to tissue ratio at 2 h (tumor/muscle, RGD blockade (3.5 μg RGD co-injected), read-out: Uptake Ratio Tumor/Muscle)?
A: Its tissue to tissue ratio at 2 h is 70.
